Measured values reported in ChEMBL document CHEMBL3808363, “2-(Thienothiazolylimino)-1,3-thiazolidin-4-ones inhibit cell division cycle 25 A phosphatase” (Bioorg Med Chem, 2016).
Activity calls are given as the source filed them. The calls are words filed in the database; no cut-off is given here.

Key:
MDA-MB-231 [1] = assay: Induction of apoptosis in human MDA-MB-231 cells assessed as chromatin condensation after 24 to 48 hrs by DAPI staining based UV fluorescent microscopy; assay type: functional, cell-based
MDA-MB-231 [2] = assay: Increase in peroxynitryl radical levels in human MDA-MB-231 cells at IC50 concentration incubated for 24 hrs by DHR dye based flow cytometry; assay type: functional, cell-based
MCF7 [3] = assay: Increase in peroxynitryl radical levels in human MCF7 cells at IC50 concentration incubated for 24 hrs by DHR dye based flow cytometry; assay type: functional, cell-based
[4] = target: T1, M-phase inducer phosphatase 1 (Homo sapiens, UniProt P30304); assay: (§1) Mixed type inhibition of human recombinant full length GST-tagged CDC25A transfected in Escherichia coli BL21-DE3 assessed as enzyme/inhibitor complex using 3-O-methylfluorescein phosphate as substrate at 5 uM incubated for 20 mins followed by substrate addition measured every 10 mins for 2 hrs by fluorimetric assay
T1 sequence (P30304 whole entry): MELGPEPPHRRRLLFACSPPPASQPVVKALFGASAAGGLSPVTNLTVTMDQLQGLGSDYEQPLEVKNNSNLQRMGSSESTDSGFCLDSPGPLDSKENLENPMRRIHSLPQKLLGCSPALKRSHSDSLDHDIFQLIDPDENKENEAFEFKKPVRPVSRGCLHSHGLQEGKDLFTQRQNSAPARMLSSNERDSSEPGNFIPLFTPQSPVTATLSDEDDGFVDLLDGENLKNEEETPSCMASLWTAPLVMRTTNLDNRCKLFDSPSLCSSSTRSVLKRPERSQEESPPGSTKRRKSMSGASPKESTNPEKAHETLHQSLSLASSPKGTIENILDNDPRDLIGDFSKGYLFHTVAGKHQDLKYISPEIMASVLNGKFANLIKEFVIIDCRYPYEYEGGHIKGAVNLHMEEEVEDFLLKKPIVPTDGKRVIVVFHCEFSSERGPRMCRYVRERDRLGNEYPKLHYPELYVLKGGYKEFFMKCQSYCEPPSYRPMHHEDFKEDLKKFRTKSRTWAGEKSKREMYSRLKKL

MDA-MB-231 [5] = assay: Cytostatic activity against human MDA-MB-231 cells at IC50 concentration; assay type: functional, cell-based
MDA-MB-231 [6] = assay: Cell cycle arrest in human MDA-MB-231 cells assessed as accumulation at S phase at IC50 concentration after 48 hrs by propidium iodide staining-based flow cytometry (reference value: 21.7 +/- 0.3%); assay type: functional
[7] = target: T1, M-phase inducer phosphatase 1; assay: as §1, with “as enzyme/substrate/inhibitor” for “as enzyme/inhibitor”, “at 10” for “at 5”
MDA-MB-231 [8] = assay: Cell cycle arrest in human MDA-MB-231 cells assessed as accumulation at G0/G1 phase at IC50 concentration after 48 hrs by propidium iodide staining-based flow cytometry (reference value: 57.3 +/- 0.3%); assay type: functional
[9] = target: T1, M-phase inducer phosphatase 1; assay: as §1, with “at 10” for “at 5”
MDA-MB-231 [10] = assay: Increase in RNS levels in human MDA-MB-231 cells at IC50 concentration incubated for 24 hrs by DAF-2DA dye based flow cytometry; assay type: functional, cell-based
[11] = target: T1, M-phase inducer phosphatase 1; assay: as §1, with “at 20” for “at 5”
MCF7 [12] = assay: Cytostatic activity against human MCF7 cells at IC50 concentration; assay type: functional, cell-based
MDA-MB-231 [13] = assay: Cytotoxicity against human MDA-MB-231 cells assessed as inhibition of cell growth after 72 hrs by MTT assay; assay type: functional, cell-based; details: MDA-MB-231, 72 h
[14] = target: Cyclin-dependent kinase 1 (Homo sapiens) (UniProt P06493); assay: Effect on CDK1 phosphorylation in human MDA-MB-231 after 6 hrs by Western blot analysis
Cyclin-dependent kinase 1 (Homo sapiens), sequence (P06493 whole entry, looked up, the tested form may be a part): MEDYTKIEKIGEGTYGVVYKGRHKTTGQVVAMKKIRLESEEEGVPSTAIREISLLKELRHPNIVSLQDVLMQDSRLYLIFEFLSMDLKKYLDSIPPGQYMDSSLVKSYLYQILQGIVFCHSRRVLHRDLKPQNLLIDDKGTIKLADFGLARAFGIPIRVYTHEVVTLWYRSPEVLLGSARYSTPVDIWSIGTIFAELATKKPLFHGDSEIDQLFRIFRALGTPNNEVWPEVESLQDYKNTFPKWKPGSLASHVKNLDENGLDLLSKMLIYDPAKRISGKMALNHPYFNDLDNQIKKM

MDA-MB-231 [15] = assay: Induction of autophagy in human MDA-MB-231 cells assessed as acidic vesicles at 8.4 uM over 3 days by acridine orange dye based flow cytometry; assay type: functional, cell-based
MDA-MB-231 [16] = assay: Antiproliferative activity against human MDA-MB-231 cells assessed as cell viability at IC50 concentration after 48 hrs by 2',7'-dichlorofluorescin diacetate/PI staining based flow cytometry; assay type: functional
[17] = target: T2, M-phase inducer phosphatase 1 (Homo sapiens) (UniProt P30304); assay: Reversible binding affinity to human recombinant full length GST-tagged CDC25A transfected in Escherichia coli BL21-DE3 after 1 hr by MALDI-TOF mass spectrometry
T2 sequence (whole entry): T1 sequence (P30304 whole entry)

MCF7 [18] = assay: Induction of autophagy in human MCF7 cells assessed as acidic vesicles at 5.1 uM over 3 days by acridine orange dye based flow cytometry; assay type: functional, cell-based
MDA-MB-231 [19] = assay: Cytotoxicity against human MDA-MB-231 cells assessed as inhibition of cell growth at IC50 concentration after 72 hrs by trypan blue assay; assay type: functional
MDA-MB-231 [20] = assay: Cell cycle arrest in human MDA-MB-231 cells assessed as accumulation at subG1 phase at IC50 concentration after 48 hrs by propidium iodide staining-based flow cytometry; assay type: functional
MDA-MB-231 [21] = assay: Cell cycle arrest in human MDA-MB-231 cells assessed as accumulation at G2/M phase at IC50 concentration after 48 hrs by propidium iodide staining-based flow cytometry (reference value: 20.9 +/- 1.1%); assay type: functional
MCF7 [22] = assay: Cytotoxicity against human MCF7 cells assessed as inhibition of cell growth after 72 hrs by MTT assay; assay type: functional, cell-based; details: MCF7, 72 h
MCF7 [23] = assay: Cell cycle arrest in human MCF7 cells assessed as accumulation at G2/M phase at IC50 concentration after 48 hrs by propidium iodide staining-based flow cytometry (reference value: 13.8 +/- 1%); assay type: functional
MCF7 [24] = assay: Cell cycle arrest in human MCF7 cells assessed as accumulation at subG1 phase at IC50 concentration after 48 hrs by propidium iodide staining-based flow cytometry; assay type: functional
MDA-MB-231 [25] = assay: Induction of reactive oxygen species production in human MDA-MB-231 cells at IC50 concentration up to 6 hrs by DCF-2DA dye based flow cytometry; assay type: functional, cell-based
MCF7 [26] = assay: Increase in RNS levels in human MCF7 cells at IC50 concentration incubated for 24 hrs by DAF-2DA dye based flow cytometry; assay type: functional, cell-based
MCF7 [27] = assay: Cell cycle arrest in human MCF7 cells assessed as accumulation at G0/G1 phase at IC50 concentration after 48 hrs by propidium iodide staining-based flow cytometry (reference value: 66.7 +/- 1.6%); assay type: functional
[28] = target: T2, M-phase inducer phosphatase 1 (Homo sapiens); assay: (§2) Inhibition of human recombinant full length GST-tagged CDC25A transfected in Escherichia coli BL21-DE3 using 3-O-methylfluorescein phosphate as substrate at 10 uM incubated for 20 mins followed by substrate addition measured every 10 mins for 2 hrs by fluorimetric assay in presence of 0.01% triton X 100
[29] = target: T2, M-phase inducer phosphatase 1 (Homo sapiens); assay: as §2, with “0.025%” for “0.01%”
MCF7 [30] = assay: Antiproliferative activity against human MCF7 cells assessed as cell viability at IC50 concentration after 48 hrs by 2',7'-dichlorofluorescin diacetate/PI staining based flow cytometry; assay type: functional
[31] = target: Cyclin-dependent kinase 1 (Homo sapiens) (UniProt P06493); assay: Effect on CDK1 phosphorylation in human MCF7 cells after 6 hrs by Western blot analysis; assay type: cell-based
MCF7 [32] = assay: Induction of apoptosis in human MCF7 cells assessed as nuclear fragmentation after 24 hrs by dihydro-rhodamine 123/hoechst […] staining based UV fluorescent microscopy; assay type: functional, cell-based

COc1ccc(/C=C2/S/C(=N\c3nc4cc(-c5ccc(Cl)cc5)sc4s3)NC2=O)cc1
Activity (MDA-MB-231 [1]): inactive | Activity (MDA-MB-231 [2]): Active | Activity (MCF7 [3]): Active | Ki [4]: 37.1 µM | Activity (MDA-MB-231 [5]): Active | Activity (MDA-MB-231 [6]): 25.8% | Ki [7]: 5.1 µM | Activity (MDA-MB-231 [8]): 58.3% | Ki [9]: 4.8 µM | Activity (MDA-MB-231 [10]): Active | Ki [11]: 3.1 µM | Activity (MCF7 [12]): Active | IC50 (MDA-MB-231 [13]): 8.4 µM | Activity [14]: inactive | Activity (MDA-MB-231 [15]): inactive | Activity (MDA-MB-231 [16]): inactive | Activity [17]: Active | Activity (MCF7 [18]): inactive | growth inhibition (GI) (MDA-MB-231 [19]): 70% | Activity (MDA-MB-231 [20]): inactive | Activity (MDA-MB-231 [21]): 15.9% | IC50 (MCF7 [22]): 5.1 µM | Activity (MCF7 [23]): 15.8% | Activity (MCF7 [24]): inactive | Activity (MDA-MB-231 [25]): inactive | Activity (MCF7 [26]): Active | Activity (MCF7 [27]): 58.8% | inhibition [28]: 28.2% | inhibition [29]: 27.1% | Activity (MCF7 [30]): inactive | Activity [31]: inactive | Activity (MCF7 [32]): inactive
